Laboratory results taken from ChEMBL document CHEMBL1201862, “PubChem BioAssay data set” (2004).
“And” between values parts separate entries of the source, which are not always exact repeats. Equal entries are not always repeated.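 Five compound concentrations were applied to cells in 96-well plates for 48 hours; endpoints were derived by simple linear interpolation of the resulting dose-response curve. Here, GI50 denotes the concentration required for 50% inhibition of growth.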 The source made the active and inactive calls. Cut-off read from the data, not from the text of the source: active = GI50 up to about 1.1 µM and inactive = higher.

Experiments:
Experiment in all cases: NCI-60 cell line screen, 48 h
SNB-19 = system: SNB-19
HCC 2998 = system: HCC 2998
MDA-MB-435 = system: MDA-MB-435
T47D = system: T47D
ACHN = system: ACHN
Malme-3M = system: Malme-3M
MDA-MB-231 = system: MDA-MB-231
SK-OV-3 = system: SK-OV-3
IGROV-1 = system: IGROV-1
OVCAR-5 = system: OVCAR-5
U-251 = system: U-251
SF-539 = system: SF-539
HCT-15 = system: HCT-15
RXF 393 = system: RXF 393
SNB-75 = system: SNB-75
UO-31 = system: UO-31
HOP-92 = system: HOP-92
NCI-H460 = system: NCI-H460
DU-145 = system: DU-145
CAKI-1 = system: CAKI-1

SMILES | GI50 (SNB-19) | GI50 (HCC 2998) | GI50 (MDA-MB-435) | GI50 (T47D) | GI50 (ACHN) | GI50 (Malme-3M) | GI50 (MDA-MB-231) | GI50 (SK-OV-3) | GI50 (IGROV-1) | GI50 (OVCAR-5) | GI50 (U-251) | GI50 (SF-539) | GI50 (HCT-15) | GI50 (RXF 393) | GI50 (SNB-75) | GI50 (UO-31) | GI50 (HOP-92) | GI50 (NCI-H460) | GI50 (DU-145) | GI50 (CAKI-1)
CC(C)CCC[C@@H](C)[C@H]1CC[C@H]2[C@@H]3CC=C4C[C@@H](OC(=O)c5cccc6c(=O)c7ccccc7[nH]c56)CC[C@]4(C)[C@H]3CC[C@]12C | > 75 µM (inactive) | > 75 µM (inactive) | > 75 µM (inactive) | > 75 µM (inactive) | > 75 µM (inactive) | > 75 µM (inactive) | 3.91 µM (inactive) | > 75 µM (inactive) | > 75 µM (inactive) | > 75 µM (inactive) | > 75 µM (inactive) | > 75 µM (inactive) | > 75 µM | > 75 µM (inactive) | > 75 µM (inactive) | > 75 µM (inactive) | > 75 µM (inactive) |  |  | 
N[C@H](CCC(=O)NCP(=O)(O)O)C(=O)O | > 100 µM (inactive) | > 100 µM (inactive) | > 100 µM (inactive) | > 100 µM (inactive) | > 100 µM (inactive) | > 100 µM (inactive) | > 100 µM (inactive) |  | > 100 µM (inactive) | > 100 µM (inactive) | > 100 µM (inactive) | > 100 µM (inactive) | > 100 µM |  |  | > 100 µM (inactive) |  | > 100 µM (inactive) |  | 
COC(=O)C1(C(=O)OC)CC2=C(S(=O)(=O)c3ccccc3)C[C@@H](C#N)[C@H]2C1 | > 100 µM (inactive) | 16 µM (inactive) | > 100 µM (inactive) |  | > 100 µM (inactive) | > 100 µM (inactive) | > 100 µM (inactive) | > 100 µM (inactive) | 52 µM (inactive) | > 100 µM (inactive) | > 100 µM (inactive) | > 100 µM (inactive) | 37.9 µM |  | > 100 µM (inactive) | > 100 µM (inactive) | 28.9 µM (inactive) | 91.4 µM (inactive) | > 100 µM (inactive) | > 100 µM (inactive)
CC(=O)Oc1ccc2cc(Oc3cc(Cl)c(Cl)cc3Cl)c(=O)oc2c1 | 29.6 µM (inactive) | 17.1 µM (inactive) |  | 27.2 µM (inactive) | 22.9 µM (inactive) | 15.3 µM (inactive) | 16.4 µM (inactive) |  | 11.2 µM (inactive) | 18.5 µM (inactive) | 15.6 µM (inactive) | 16 µM (inactive) | 13.1 µM | 14.6 µM (inactive) | 19.6 µM (inactive) | 13.1 µM (inactive) | 17.8 µM (inactive) | 18.8 µM (inactive) | 25.3 µM (inactive) | 18 µM (inactive)
CCCCC(C)(C/C=C/[C@@H]1[C@@H](C(O)CCCCCC(=O)OC)C(=O)C[C@H]1O[Si](C)(C)C(C)(C)C)O[Si](C)(C)C (some centres not stated) | > 100 µM (inactive) | > 100 µM (inactive) | 74.3 µM (inactive) |  | 86.5 µM (inactive) | > 100 µM (inactive) | > 100 µM (inactive) | > 100 µM (inactive) | > 100 µM (inactive) | > 100 µM (inactive) | 57.5 µM (inactive) | > 100 µM (inactive) | 76.2 µM | 54.2 µM (inactive) | 56.2 µM (inactive) | 33.7 µM (inactive) | > 100 µM (inactive) | 83.4 µM (inactive) | > 100 µM (inactive) | 38.4 µM (inactive)
NCCCN1CCN(c2ccccc2)CC1 | > 100 µM (inactive) |  | 51.2 µM (inactive) | > 100 µM (inactive) | > 100 µM (inactive) | > 100 µM (inactive) | > 100 µM (inactive) |  | > 100 µM (inactive) | > 100 µM (inactive) | > 100 µM (inactive) |  | > 100 µM | > 100 µM (inactive) | > 100 µM (inactive) | > 100 µM (inactive) | 86.3 µM (inactive) | > 100 µM (inactive) | > 100 µM (inactive) | > 100 µM (inactive)
CC(C)(C)N1CSC(=S)N(Cc2ccco2)C1 | 3.91 µM (inactive) | 4.02 µM (inactive) | 1.76 µM (inactive) | 5.64 µM (inactive) | 3.27 µM (inactive) | 4.16 µM (inactive) |  | 5.75 µM (inactive) | 2.55 µM (inactive) | 3.1 µM (inactive) | 3.72 µM (inactive) | 0.708 µM (active) | 2.56 µM | 5.87 µM (inactive) | 12.8 µM (inactive) | 2.38 µM (inactive) | 1.55 µM (inactive) | 5.89 µM (inactive) | 3.85 µM (inactive) | 2.83 µM (inactive)
O=C1/C(=C/c2cccc([N+](=O)[O-])c2)Cc2ccccc21 | > 100 µM (inactive) |  | > 100 µM (inactive) |  | > 100 µM (inactive) | > 100 µM (inactive) | > 100 µM (inactive) | > 100 µM (inactive) | > 100 µM (inactive) | > 100 µM (inactive) | 60.1 µM (inactive) | > 100 µM (inactive) | 72.8 µM |  | > 100 µM (inactive) | 94.8 µM (inactive) | 75.3 µM (inactive) | > 100 µM (inactive) | > 100 µM (inactive) | > 100 µM (inactive)
CC[n+]1[b-](C(C)(C)C)n(/N=C/C(C)(C)C)[b-](C(C)(C)C)[n+]1CC | > 100 µM (inactive) | > 100 µM (inactive) | > 100 µM (inactive) | > 100 µM (inactive) | > 100 µM (inactive) | > 100 µM (inactive) | > 100 µM (inactive) |  | > 100 µM (inactive) | > 100 µM (inactive) | > 100 µM (inactive) | > 100 µM (inactive) | > 100 µM | > 100 µM (inactive) | > 100 µM (inactive) | > 100 µM (inactive) |  | > 100 µM (inactive) |  | > 100 µM (inactive)
CC(C)(C)OC(=O)NC(Cc1ccc(O)cn1)C(=O)O (configuration not stated) | > 100 µM (inactive) | > 100 µM (inactive) | > 100 µM (inactive) |  | > 100 µM (inactive) | > 100 µM (inactive) | > 100 µM (inactive) |  | > 100 µM (inactive) | > 100 µM (inactive) | > 100 µM (inactive) | > 100 µM (inactive) | > 100 µM | > 100 µM (inactive) | > 100 µM (inactive) | > 100 µM (inactive) | > 100 µM (inactive) | > 100 µM (inactive) | > 100 µM (inactive) | > 100 µM (inactive)
c1ccc2c(-c3csc(-c4c[nH]c5ccccc45)n3)c[nH]c2c1 | > 89.7 µM (inactive) | > 100 µM (inactive) | 35.8 µM (inactive) |  | > 100 µM (inactive) | > 100 µM (inactive) | > 67.8 µM (inactive) | > 44.8 µM (inactive) | > 28.5 µM (inactive) | > 51.9 µM (inactive) | > 90.6 µM (inactive) | > 100 µM (inactive) | > 100 µM | > 100 µM (inactive) | > 22.4 µM (inactive) | > 48.1 µM (inactive) | > 100 µM (inactive) | > 53.7 µM (inactive) | > 76.7 µM (inactive) | > 100 µM (inactive)
c1ccc(C(CCN2CC3CCC(CC3)C2)c2ccccc2)cc1 | 34.4 µM (inactive) |  | 25.1 µM (inactive) | 20 µM (inactive) | 22.8 µM (inactive) | 16.3 µM (inactive) | 18.9 µM (inactive) |  | 31 µM (inactive) | 20.1 µM (inactive) | 18.2 µM (inactive) | 16 µM (inactive) | 21.8 µM | 18.8 µM (inactive) | 24.2 µM (inactive) | 14.9 µM (inactive) | 22.9 µM (inactive) | 15 µM (inactive) | 38.4 µM (inactive) | 37.9 µM (inactive)
COc1ccc(/C=C2/N/C(=N\N=C/C(O)C(O)C(O)CO)NC2=O)cc1 (configuration not stated) |  | 58.5 µM (inactive) | > 100 µM (inactive) and 74.1 µM (inactive) |  | > 100 µM (inactive) and 89.5 µM (inactive) | > 100 µM (inactive) | 91 µM (inactive) | 73.6 µM (inactive) | > 100 µM (inactive) and 76.7 µM (inactive) | > 100 µM (inactive) | > 100 µM (inactive) and 84.7 µM (inactive) | 18 µM (inactive) | > 100 µM | > 100 µM (inactive) |  | > 100 µM (inactive) | 48.3 µM (inactive) and 42.6 µM (inactive) | > 100 µM (inactive) | > 100 µM (inactive) and 71.3 µM (inactive) | > 100 µM (inactive)
O=C1CC(c2ccc(O)cc2)C2(O1)C(=O)OC(C(O)CO)C2O (configuration not stated) | > 100 µM (inactive) |  | > 100 µM (inactive) | > 100 µM (inactive) | > 100 µM (inactive) | 96.2 µM (inactive) | > 100 µM (inactive) | > 100 µM (inactive) | > 100 µM (inactive) | > 100 µM (inactive) | > 100 µM (inactive) | > 100 µM (inactive) | > 100 µM | > 100 µM (inactive) | > 100 µM (inactive) | > 100 µM (inactive) |  |  | > 100 µM (inactive) | > 100 µM (inactive)
Cc1cc([N+](=O)[O-])ccc1Sc1c2ccccc2nc2ccccc12 | 45.5 µM (inactive) | 25.4 µM (inactive) |  |  | 48.9 µM (inactive) | > 100 µM (inactive) |  | 31.3 µM (inactive) | 28.4 µM (inactive) | > 100 µM (inactive) | 28.5 µM (inactive) | 28.4 µM (inactive) | 22.5 µM | 57.5 µM (inactive) | 39.6 µM (inactive) | 44.7 µM (inactive) | 48.3 µM (inactive) | 32 µM (inactive) |  | 26.4 µM (inactive)
COc1ccc2[nH]c3c4c(cc(-c5ccccc5)c3c2c1)C(=O)N(c1ccccc1)C4=O | 23.6 µM (inactive) | > 100 µM (inactive) |  |  | > 41.5 µM (inactive) | 20.4 µM (inactive) |  | 26.3 µM (inactive) | 41.5 µM (inactive) | > 100 µM (inactive) | 5.98 µM (inactive) | 2 µM (inactive) | 41.4 µM | 13 µM (inactive) | 6.3 µM (inactive) | 28.5 µM (inactive) | 17.6 µM (inactive) | 9.73 µM (inactive) |  | 27 µM (inactive)
